Measurements published in BindingDB's records for doi:10.1016/j.bmcl.2007.11.067 (Bristol-Myers Squibb, 2008).

Experiment: Antagonist activity at human CCR3 receptor in human eosinophil assessed as inhibition of eotaxin-induced chemotaxis

| IC50 [nM] | Structure (SMILES) |
| --- | --- |
| 1.1 | C[C@H](CCN1CCC[C@@H](Cc2ccc(F)cc2)C1)NC(=O)Nc1cccc(-c2nnnn2C)c1 |
| 25 | CC(=O)c1cccc(NC(=O)NCCCN2CCC[C@@H](Cc3ccc(F)cc3)C2)c1 [1-(3-Acetyl-phenyl)-3-{3-[(S)-3-(4-fluoro-benzyl)-piperidin-1-yl]-propyl}-urea] |
| 0.2 | CC(=O)c1cc(NC(=O)N[C@H](C)CCN2CCC[C@@H](Cc3ccc(F)cc3)C2)cc(C(C)=O)c1 |
| 0.021 | CC(C)c1cc(NC(=O)N[C@H](C)CCN2CCC[C@@H](Cc3ccc(F)cc3)C2)cc(-c2nnnn2C)c1 |
| 0.1 | CC[C@H](CCN1CCC[C@@H](Cc2ccc(F)cc2)C1)NC(=O)Nc1cc(-c2nnnn2C)cc(C(C)(C)O)c1 |
| 0.2 | C[C@H](CC(=O)N1CCC[C@@H](Cc2ccc(F)cc2)C1)NC(=O)Nc1cccc(-c2nnnn2C)c1 |
| 0.02 | CCc1cc(NC(=O)N[C@H](C)CCN2CCC[C@@H](Cc3ccc(F)cc3)C2)cc(-c2nnnn2C)c1 |
| > 1 | C[C@@H](CCN1CCC[C@@H](Cc2ccc(F)cc2)C1)NC(=O)Nc1cccc(-c2nnnn2C)c1 |
| 0.3 | CC(C)c1cc(NC(=O)NCCCN2CCC[C@@H](Cc3ccc(F)cc3)C2)cc(-c2nnnn2C)c1 |
| 0.1 | C[C@H](CCN1CCC[C@@H](Cc2ccc(F)cc2)C1)NC(=O)Nc1cc(-n2cccn2)cc(-n2cccn2)c1 |
| 5 | O=C(NCCCN1CCC[C@@H](Cc2ccc(F)cc2)C1)Nc1cc(-n2cccn2)cc(-n2cccn2)c1 |
| 60 | CC(=O)c1cc(NC(=O)N[C@@H](C)CCN2CCC[C@@H](Cc3ccc(F)cc3)C2)cc(C(C)=O)c1 |
| 0.02 | CC(=O)c1cc(NC(=O)N[C@H](C)CCN2CCC[C@@H](Cc3ccc(F)cc3)C2)cc(-c2nnnn2C)c1 |
| 0.04 | C[C@@H](NC(=O)Nc1cccc(-c2nnnn2C)c1)[C@@H](O)CN1CCC[C@@H](Cc2ccc(F)cc2)C1 [1-{(1R,2S)-3-[(S)-3-(4-Fluoro-benzyl)-piperidin-1-yl]-2-hydroxy-1-methyl-propyl}-3-[3-(1-methyl-1H-tetrazol-5-yl)-phenyl]-urea] |
| 3 | CC(=O)c1cc(NC(=O)NCCCN2CCC[C@@H](Cc3ccc(F)cc3)C2)cc(C(C)=O)c1 [(S)-1-(3-(3-(4-fluorobenzyl)piperidin-1-yl)propyl)-3-(3,5-diacetylphenyl)urea] |
| 0.011 | CCC[C@H](CCN1CCC[C@@H](Cc2ccc(F)cc2)C1)NC(=O)Nc1cc(-c2nnnn2C)cc(C(C)(C)O)c1 |
| 1 | Cc1cc(NC(=O)NCCCN2CCC[C@@H](Cc3ccc(F)cc3)C2)cc(-c2nnnn2C)c1 [1-{3-[(S)-3-(4-Fluoro-benzyl)-piperidin-1-yl]-propyl}-3-[3-methyl-5-(1-methyl-1H-tetrazol-5-yl)-phenyl]-urea] |
| 3.2 | Cn1nnnc1-c1cccc(NC(=O)NCCCN2CCC[C@@H](Cc3ccc(F)cc3)C2)c1 [1-{3-[(S)-3-(4-Fluoro-benzyl)-piperidin-1-yl]-propyl}-3-[3-(1-methyl-1H-tetrazol-5-yl)-phenyl]-urea] |

Experiment: Antagonist activity at CCR3 receptor in cynomolgus monkey eosinophil assessed as as inhibition of chemotaxis

| IC50 [nM] | Structure (SMILES) |
| --- | --- |
| 0.15 | C[C@@H](NC(=O)Nc1cccc(-c2nnnn2C)c1)[C@@H](O)CN1CCC[C@@H](Cc2ccc(F)cc2)C1 [1-{(1R,2S)-3-[(S)-3-(4-Fluoro-benzyl)-piperidin-1-yl]-2-hydroxy-1-methyl-propyl}-3-[3-(1-methyl-1H-tetrazol-5-yl)-phenyl]-urea] |

Experiment: Antagonist activity at CCR3 receptor in mouse eosinophil assessed as as inhibition of chemotaxis

| IC50 [nM] | Structure (SMILES) |
| --- | --- |
| 870 | C[C@@H](NC(=O)Nc1cccc(-c2nnnn2C)c1)[C@@H](O)CN1CCC[C@@H](Cc2ccc(F)cc2)C1 [1-{(1R,2S)-3-[(S)-3-(4-Fluoro-benzyl)-piperidin-1-yl]-2-hydroxy-1-methyl-propyl}-3-[3-(1-methyl-1H-tetrazol-5-yl)-phenyl]-urea] |
